Experimental data published in patent US20060293315A1, “Intermediates of novel heterocyclic compounds having antibacterial activity and process for their preparation” (Dr. Reddy's Laboratories Ltd., priority 2001, published 2006).
Values after ≈ are worked out from the molar mass of the structure shown.

Experiments:
[1] = test system: Staphylococcus aureus 019 MRSA (ATCC 33591); assay: MIC by broth microdilution, Staphylococcus aureus 019 MRSA; format: cell-based; conditions: DRCC 019, MRSA, broth microdilution in MHB, read-out: Antimicrobial Screening (MIC) Staphylococcus aureus 019 MRSA
Procedure: (§1) Minimum Inhibiton Concentrations (MICs) were determined by broth microdilution technique as per the guidelines prescribed in the fifth edition of Approved Standards, NCCLS document M7-A5 Vol 20-No 2, 2000 Villinova, Pa.
(§2) Initial stock solution of the test compound was prepared in DMSO. Subsequent two fold dilutions were carried out in sterile Mueller Hinton Broth (Difco) (MHB).
(§3) Frozen cultures stocks were inoculated into 50 ml sterile MHB in 250 ml Erlyn Meyer flasks.
(§4) Composition of MHB is as follows:
(§5) Flasks were incubated for 4 to 5 h at 35° C. on a rotary shaker at 150 rpm. Inoculum was prepared by diluting the culture in sterile MHB to obtain a turbidity of 0.5 McFarland standard. This corresponds to 1-2×10^8 CFU/ml. The stock was further diluted in sterile broth to obtain 1-2×10^6 CFU/ml. 50 μl of the above diluted inoculum was added from 1-10 wells. The plates were incubated overnight at 37° C.

[2] = test system: Enterococcus sp 153 R (Enterococcus faecalis NCTC 12201); assay: MIC by broth microdilution, Enterococcus sp 153 R; format: cell-based; conditions: NCTC12201, DRCC 153, R, broth microdilution in MHB, read-out: Antimicrobial Screening (MIC) Enterococcus sp 153 R
Procedure: as §1, §2, §3, §4, §5

[3] = test system: M. catarrhalis 300 (Moraxella catarrhalis ATCC 25238); assay: MIC by broth microdilution, M. catarrhalis 300; format: cell-based; conditions: ATCC25238, DRCC 300, broth microdilution in MHB, read-out: Antimicrobial Screening (MIC) M. catarrhalis 300
Procedure: as §1, §2, §3, §4, §5

[4] = test system: Staphylococcus aureus 035 S (ATCC 29213); assay: MIC by broth microdilution, Staphylococcus aureus 035 S; format: cell-based; conditions: ATCC29213, DRCC 035, S, broth microdilution in MHB, read-out: Antimicrobial Screening (MIC) Staphylococcus aureus 035 S
Procedure: as §1, §2, §3, §4, §5

[5] = test system: Enterococcus sp 034 S (Enterococcus faecalis ATCC 29212); assay: MIC by broth microdilution, Enterococcus sp 034 S; format: cell-based; conditions: ATCC29212, DRCC 034, S, broth microdilution in MHB, read-out: Antimicrobial Screening (MIC) Enterococcus sp 034 S
Procedure: as §1, §2, §3, §4, §5

[6] = test system: H. influenzae 432 (Haemophilus influenzae ATCC 49247); assay: MIC by broth microdilution, H. influenzae 432; format: cell-based; conditions: ATCC49247, DRCC 432, broth microdilution in MHB, read-out: Antimicrobial Screening (MIC) H. influenzae 432
Procedure: as §1, §2, §3, §4, §5

[7] = test system: Enterococcus sp 154 R (Enterococcus faecium NCTC 12202); assay: MIC by broth microdilution, Enterococcus sp 154 R; format: cell-based; conditions: NCTC12202, DRCC 154, R, broth microdilution in MHB, read-out: Antimicrobial Screening (MIC) Enterococcus sp 154 R
Procedure: as §1, §2, §3, §4, §5

Mycobacterium MTCC 006 = assay: MIC by broth microdilution, Mycobacterium MTCC 006; format: cell-based; conditions: MTCC006, broth microdilution in MHB, read-out: Antimicrobial Screening (MIC) Mycobacterium MTCC 006
Procedure: as §1, §2, §3, §4, §5

Salmorella TA 97 = assay: MIC by broth microdilution, Salmorella TA 97; format: cell-based; conditions: read-out: Antimicrobial Screening (MIC) Salmorella TA 97
Procedure: as §1, §2, §3, §4, §5

[8] = test system: Staphylococcus aureus 213 Smith S (ATCC 49951); assay: MIC by broth microdilution, Staphylococcus aureus 213 Smith S; format: cell-based; conditions: ATCC49951, DRCC 213, Smith S, broth microdilution in MHB, read-out: Antimicrobial Screening (MIC) Staphylococcus aureus 213 Smith S
Procedure: as §1, §2, §3, §4, §5

[9] = test system: H. influenzae 529 (Haemophilus influenzae ATCC 9006); assay: MIC by broth microdilution, H. influenzae 529; format: cell-based; conditions: ATCC9006, DRCC 529, broth microdilution in MHB, read-out: Antimicrobial Screening (MIC) H. influenzae 529
Procedure: as §1, §2, §3, §4, §5

[10] = test system: H. influenzae 433 (Haemophilus influenzae ATCC 49766); assay: MIC by broth microdilution, H. influenzae 433; format: cell-based; conditions: ATCC49766, DRCC 433, broth microdilution in MHB, read-out: Antimicrobial Screening (MIC) H. influenzae 433
Procedure: as §1, §2, §3, §4, §5

In the case of COC(=S)NC[C@H]1CN(c2ccc(N3CC(=O)N(Cc4ccc(OC)cc4)C3)c(F)c2)C(=O)O1 [Example 153], the melting point is reported as 158 °C.

Work on CC(C)OC(=S)NC[C@H]1CN(c2ccc(N3CC(=O)N(Cc4ccccc4)C3)c(F)c2)C(=O)O1 [Example 154] yielded a melting point of 192 °C.

Work on COC(=S)NC[C@H]1CN(c2ccc(N3CC(=O)N(CO)C3)c(F)c2)C(=O)O1 [Example 155] yielded a melting point of 184 °C.

For COC(=S)NC[C@H]1CN(c2ccc(N3CC(=O)N(CO)C3)cc2)C(=O)O1 [Example 157], the melting point was 202 to 208 °C.

COC(=S)NC[C@H]1CN(c2ccc(N3CNC(=O)C3)cc2)C(=O)O1 [Example 158] showed a melting point of 205 to 210 °C.

With CCCCN1CN(c2ccc(N3C[C@H](CNC(=S)OC)OC3=O)cc2F)CC1=O [Example 160] the melting point was 122 °C.

Work on C=CCN1CN(c2ccc(N3C[C@H](CNC(=S)OC)OC3=O)cc2F)CC1=O [Example 161] yielded a melting point of 86 °C.

In the case of COC(=S)NC[C@H]1CN(c2cc(F)c(N3CC(=O)N(C)C3)c(F)c2)C(=O)O1 [Example 164], the MIC [1] is reported as 0.25 µg/mL (≈ 0.624 µM), the MIC [2] is reported as 0.5 µg/mL (≈ 1.25 µM) and the MIC [3] is reported as 8 µg/mL (≈ 20 µM). For the same compound, the MIC [4] was 0.5 µg/mL (≈ 1.25 µM), the MIC [5] was 0.5 µg/mL (≈ 1.25 µM) and the MIC [6] was 8 µg/mL (≈ 20 µM). The MIC [7] was 0.5 µg/mL (≈ 1.25 µM), the MIC (Mycobacterium MTCC 006) was 4 µg/mL (≈ 9.99 µM) and the MIC (Salmorella TA 97) was 16 µg/mL (≈ 40 µM). The MIC [8] was 0.5 µg/mL (≈ 1.25 µM), the MIC [9] was 16 µg/mL (≈ 40 µM) and the MIC [10] was 16 µg/mL (≈ 40 µM).

CCCOC(=S)NC[C@H]1CN(c2cc(F)c(N3CNC(=O)C3)c(F)c2)C(=O)O1 [Example 165] gave an MIC [1] of 1 µg/mL (≈ 2.41 µM), an MIC [2] of 2 µg/mL (≈ 4.83 µM) and an MIC [3] of over 32 µg/mL. It also gave an MIC [4] of 1 µg/mL (≈ 2.41 µM), an MIC [5] of 2 µg/mL (≈ 4.83 µM) and an MIC [6] of over 32 µg/mL. The MIC [7] was 2 µg/mL (≈ 4.83 µM), the MIC (Mycobacterium MTCC 006) was 32 µg/mL (≈ 77.2 µM) and the MIC (Salmorella TA 97) was 32 µg/mL (≈ 77.2 µM). It also gave an MIC [8] of 1 µg/mL (≈ 2.41 µM), a melting point of 186 to 188 °C and an MIC [9] of over 32 µg/mL. For the same compound, the MIC [10] was over 32 µg/mL.

With CCOC(=S)NC[C@H]1CN(c2cc(F)c(N3CNC(=O)C3)c(F)c2)C(=O)O1 [Example 166] the MIC [1] was 0.5 µg/mL (≈ 1.25 µM), the MIC [2] was 1 µg/mL (≈ 2.5 µM) and the MIC [3] was 32 µg/mL (≈ 79.9 µM). The MIC [4] was 0.5 µg/mL (≈ 1.25 µM), the MIC [5] was 1 µg/mL (≈ 2.5 µM) and the MIC [6] was over 32 µg/mL. It also gave an MIC [7] of 1 µg/mL (≈ 2.5 µM), an MIC (Mycobacterium MTCC 006) of 32 µg/mL (≈ 79.9 µM) and an MIC (Salmorella TA 97) of 32 µg/mL (≈ 79.9 µM). It also gave an MIC [8] of 0.5 µg/mL (≈ 1.25 µM), a melting point of 178 to 180 °C and an MIC [9] of over 32 µg/mL. For the same compound, the MIC [10] was over 32 µg/mL.

CC(C)OC(=S)NC[C@H]1CN(c2cc(F)c(N3CNC(=O)C3)c(F)c2)C(=O)O1 [Example 167] showed an MIC [1] of 2 µg/mL (≈ 4.83 µM), an MIC [2] of 4 µg/mL (≈ 9.65 µM) and an MIC [3] of over 32 µg/mL. For the same compound, the MIC [4] was 2 µg/mL (≈ 4.83 µM), the MIC [5] was 8 µg/mL (≈ 19.3 µM) and the MIC [6] was over 32 µg/mL. It also gave an MIC [7] of 8 µg/mL (≈ 19.3 µM), an MIC (Mycobacterium MTCC 006) of 32 µg/mL (≈ 77.2 µM) and an MIC (Salmorella TA 97) of 32 µg/mL (≈ 77.2 µM). The MIC [8] was 2 µg/mL (≈ 4.83 µM), the melting point was 176 to 178 °C and the MIC [9] was over 32 µg/mL. For the same compound, the MIC [10] was over 32 µg/mL.

For COC(=S)NC[C@H]1CN(c2cc(F)c(N3CC(=O)N(CC(=O)OC(C)(C)C)C3)c(F)c2)C(=O)O1 [Example 168], the MIC [1] was 2 µg/mL (≈ 4 µM), the MIC [2] was 1 µg/mL (≈ 2 µM) and the MIC [4] was 2 µg/mL (≈ 4 µM). It also gave an MIC [5] of 2 µg/mL (≈ 4 µM), an MIC [7] of 2 µg/mL (≈ 4 µM) and an MIC (Mycobacterium MTCC 006) of 32 µg/mL (≈ 63.9 µM). It also gave an MIC (Salmorella TA 97) of 32 µg/mL (≈ 63.9 µM) and an MIC [8] of 2 µg/mL (≈ 4 µM).

Compound COC(=O)CN1CN(c2c(F)cc(N3C[C@H](CNC(=S)OC)OC3=O)cc2F)CC1=O [Example 169] has an MIC [1] of 1 µg/mL (≈ 2.18 µM), an MIC [2] of 0.5 µg/mL (≈ 1.09 µM) and an MIC [4] of 2 µg/mL (≈ 4.36 µM). For the same compound, the MIC [5] was 0.5 µg/mL (≈ 1.09 µM), the MIC [7] was 1 µg/mL (≈ 2.18 µM) and the MIC (Mycobacterium MTCC 006) was 8 µg/mL (≈ 17.5 µM). The MIC (Salmorella TA 97) was 32 µg/mL (≈ 69.8 µM) and the MIC [8] was 1 µg/mL (≈ 2.18 µM).

COC(=S)NC[C@H]1CN(c2ccc(N3CC(=S)N(C)C3)c(F)c2)C(=O)O1 [Example 177] gave a melting point of 195 °C.

For COCN1CN(c2ccc(N3C[C@H](CNC(=S)OC)OC3=O)cc2F)CC1=O [Example 178], the melting point was 160 °C.

For COC(=S)NC[C@H]1CN(c2ccc(N3CC(=O)N(Cc4ccccc4)C3)c(F)c2)C(=O)O1 [Example 179], the melting point was 176 °C.

CCOC(=S)NC[C@H]1CN(c2ccc(N3CC(=O)N(Cc4ccccc4)C3)c(F)c2)C(=O)O1 [Example 180] showed a melting point of 184 °C.

For O=C1OCCN1c1ccc(N2C[C@H](CNC(=S)N3CCC[C@H]3CO)OC2=O)cc1 [Example 182], the melting point was 159 °C.

With CCN(CC)C(=S)NC[C@H]1CN(c2ccc(N3CCOC3=O)cc2)C(=O)O1 [Example 183] the melting point was 103 °C.

C=CCNC(=S)NC[C@H]1CN(c2ccc(N3CCOC3=O)cc2)C(=O)O1 [Example 184] showed a melting point of 171 °C.

Compound O=C1OCCN1c1ccc(N2C[C@H](CNC(=S)NCc3ccccc3)OC2=O)cc1 [Example 185] has a melting point of 181 °C.

COc1ccc(CNC(=S)NC[C@H]2CN(c3ccc(N4CCOC4=O)cc3)C(=O)O2)cc1 [Example 186] gave a melting point of 169 °C.

In the case of O=C1OCCN1c1ccc(N2C[C@H](CNC(=S)NCc3ccccn3)OC2=O)cc1 [Example 187], the melting point is reported as 165 °C.

Work on CNC(=S)NC[C@H]1CN(c2ccc(N3CCOC3=O)cc2)C(=O)O1 [Example 188] yielded a melting point of 175 °C.

Compound O=C1OCCN1c1ccc(N2C[C@H](CNC(=S)NCCO)OC2=O)cc1 [Example 189] has a melting point of 161 °C.

O=C1OCCN1c1ccc(N2C[C@H](CNC(=S)N3CCSCC3)OC2=O)cc1 [Example 190] showed a melting point of 159 °C.

Work on O=C1OCCN1c1ccc(N2C[C@H](CNC(=S)Nc3ccccn3)OC2=O)cc1 [Example 191] yielded a melting point of 189 °C.

For NC(=S)NC[C@H]1CN(c2ccc(N3CCOC3=O)c(F)c2)C(=O)O1 [Example 192], the melting point was 178 °C.

In the case of CNC(=S)NC[C@H]1CN(c2ccc(N3CCOC3=O)c(F)c2)C(=O)O1 [Example 193], the melting point is reported as 144 °C.

Work on NC(=S)NC[C@H]1CN(c2cc(F)c(N3CCOC3=O)c(F)c2)C(=O)O1 [Example 194] yielded a melting point of 92 °C.

Compound CNC(=S)NC[C@H]1CN(c2cc(F)c(N3CCOC3=O)c(F)c2)C(=O)O1 [Example 195] has a melting point of 113 °C.

COC(=S)N(C)C[C@H]1CN(c2cc(F)c(N3CNC(=O)C3)c(F)c2)C(=O)O1 [Example 198] gave a melting point of 154 to 156 °C.
